Assay results from US7259136B2, “Compositions and methods for treating peripheral vascular disease” (Amylin Pharmaceuticals, Inc., priority 1999, dated 2007).
Where no end group is shown, it is not given here.

Columns and labels:
pancreas = settings: cited from earlier work
[1] = tested on: Cardiac Muscle Ischemia and Reperfusion; test: LAD coronary artery occlusion (25 min) and reperfusion (2 h) in anesthetized rats; type: in vivo, Wistar rats
Description: Wistar rats were anesthetized with thiopentone sodium. The left anterior descending (LAD) coronary artery was occluded. After 25 minutes of occlusion, reperfusion was allowed for 2 hours. This animal model has been described previously. Zacharowski, et al. […] Br. J. Pharmacol. 128, 945–952.
GLP-1 (1.5 microgram/kg/min) was infused into anesthetized rats (n=10), commencing 10 minutes prior to reperfusion and continuing throughout the 2-hour reperfusion. Controls were sham operated with no occlusion (n=7), LAD occlusion+reperfusion+administration of saline (n=12), and LAD occlusion and reperfusion with vehicle (10 mM sodium acetate, 5.05% D-mannitol, pH 4.5, 1.5 mL/kg/hour; n=10).
Following reperfusion, the coronary artery was reoccluded, and Evans Blue dye (4 ml, 2% w/v) was injected into the left ventricle of the heart via a right carotid artery cannula. Evans Blue stains the perfused myocardium, while the occluded vascular bed remains uncolored. Animals were euthanized by anesthetic overdose and the hearts were removed for examination. Hearts were sectioned and the right ventricular wall was removed. The area at risk (pink) was separated from the non-ischemic tissue (blue). The area at risk (pink) was then cut into smaller pieces and stained with p-nitroblue tetrazolium (NBT; 0.5 mg/ml) for 20 min. at 37° C. In the presence of intact dehydrogenase enzyme systems (viable myocardium), NBT forms a dark blue compound. Areas of necrosis lack the enzyme and remain unstained. Tissue was separated according to staining and weighed to determine infarct size as a percentage of the area at risk.

[2] = tested on: Cardiac Muscle Ischemia and Reperfusion; test: Left circumflex coronary occlusion (10 min) and reperfusion in dogs; type: in vivo
Description: Two dogs were studied at baseline before, during, and for 6 hours after a 10-minute complete left circumflex coronary (LCx) occlusion. Each dog underwent occlusion/reperfusion in the presence and absence of GLP-1 infusion for […], beginning 1 minute prior to reperfusion.

Substance | stimulation of production or release of insulin from the pancreas (pancreas) | infarct size as a percentage of the area at risk ([1]; GLP-1 1.5 microgram/kg/min infusion from 10 min prior to reperfusion throughout 2-hour reperfusion, n=10) | reduction in infarct size compared with the vehicle group ([1]; GLP-1 1.5 microgram/kg/min infusion, p<0.05) | hemodynamics ([1]; GLP-1 infusion) | stunning period ([2]; dogs, GLP-1 during reperfusion after subcritical ischemia) | recovery of ventricular wall regional dysfunction ([2]; two dogs, GLP-1 infusion for 24 hours beginning 1 minute prior to reperfusion, after 10 minutes of coronary artery occlusion)
GLP-1(9-36)amide: DPP IV inactivation product of GLP-1(7-36)amide, SEQ ID NO:6 (EGTFTSDVSSYLEGQAAKEFIAWLVKGR-NH2) | do not stimulate production or release of insulin | – | – | – | – | –
GLP-1(9-37): DPP IV inactivation product of GLP-1(7-37), SEQ ID NO:5 (EGTFTSDVSSYLEGQAAKEFIAWLVKGRG; mammalian) | do not stimulate production or release of insulin | – | – | – | – | –
glucagon-like peptide-1 [GLP-1] | – | 31+/−4 % of the area at risk | approximately 33% | significantly improved hemodynamics | significantly reduced the stunning period | enhanced the recovery of ventricular wall regional dysfunction
